Laboratory results published in patent publication US8637511B2, “Aminopyrimidines useful as kinase inhibitors” (Vertex Pharmaceuticals Incorporated, priority 2005, dated 2014).
Where two headings read alike, the source gives them in different places.

Experiments:
[1] = target: Aurora-1 (Aurora B) (Homo sapiens, UniProt Q96GD4); test: Aurora-1 (Aurora B) inhibition assay (radiometric); format: biochemical; settings: read-out: Aurora B kinase Ki value
In short: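 Ki values come from non-linear regression of background-corrected initial-rate data. The enzyme was preincubated 10 min at 25° C with compound, then reacted 3 h with 800 μM (final) [γ-^33P]-ATP in HEPES pH 7.5/MgCl2/BSA/glycerol buffer. The reaction was stopped with phosphoric acid and substrate-bound ^33P counted on phosphocellulose.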

[2] = tested on: Colo205 cells; test: Analysis of cell proliferation and viability; format: cell-based; settings: Homo sapiens, read-out: IC50 value
[3] = target: T1, human Itk kinase (Homo sapiens, UniProt Q08881); test: Itk inhibition assay: radioactivity-based assay; format: biochemical; settings: Ki(app)
T1 sequence (Q08881 1-620): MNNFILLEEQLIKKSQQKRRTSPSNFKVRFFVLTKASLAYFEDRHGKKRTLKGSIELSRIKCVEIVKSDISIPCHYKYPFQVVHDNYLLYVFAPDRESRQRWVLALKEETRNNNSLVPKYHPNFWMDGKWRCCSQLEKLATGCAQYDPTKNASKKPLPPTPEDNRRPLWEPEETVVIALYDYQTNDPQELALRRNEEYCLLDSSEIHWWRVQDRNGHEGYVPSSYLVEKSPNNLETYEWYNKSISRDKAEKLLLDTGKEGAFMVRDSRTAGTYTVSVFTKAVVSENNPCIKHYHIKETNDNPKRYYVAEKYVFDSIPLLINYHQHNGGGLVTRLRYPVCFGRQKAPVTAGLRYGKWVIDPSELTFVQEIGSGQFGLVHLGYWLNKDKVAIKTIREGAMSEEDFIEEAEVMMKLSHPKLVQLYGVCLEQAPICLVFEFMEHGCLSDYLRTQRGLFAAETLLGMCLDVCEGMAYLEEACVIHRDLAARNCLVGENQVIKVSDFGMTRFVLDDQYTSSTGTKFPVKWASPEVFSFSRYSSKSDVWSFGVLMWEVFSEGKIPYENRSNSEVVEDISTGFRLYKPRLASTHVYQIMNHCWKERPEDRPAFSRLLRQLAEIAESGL
Description: The compounds of the present invention were evaluated as inhibitors of human Itk kinase using a radioactivity-based assay. These compounds can also be evaluated using a spectrophotometric or alphascreen assay.
Assays were carried out in a mixture of 20 mM MOPS (pH 7.0), 10 mM MgCl2, 0.1% BSA and 1 mM DTT. Final substrate concentrations in the assay were 7.5 μM [γ-^33P]ATP (400 μCi ^33P ATP/μmol ATP, Amersham Pharmacia Biotech/Sigma Chemicals) and 3 μM peptide (SAM68 protein Δ332-443). Assays were carried out at 25° C. in the presence of 50 nM Itk. An assay stock buffer solution was prepared containing all of the reagents listed above, with the exception of ATP and the test compound of interest. 50 μL of the stock solution was placed in a 96 well plate followed by addition of 2 μL of DMSO stock containing serial dilutions of the test compound (typically starting from a final concentration of 50 μM with 2-fold serial dilutions) in duplicate (final DMSO concentration 2%). The plate was pre-incubated for 10 minutes at 25° C. and the reaction initiated by addition of 50 μL [γ-^33P]ATP (final concentration 7.5 μM).
The reaction was stopped after 10 minutes by the addition of 100 μL 0.2M phosphoric acid+0.01% TWEEN 20. A multiscreen phosphocellulose filter 96-well plate (Millipore, Cat no. MAPHNOB50) was pretreated with 100 μL 0.2M phosphoric acid+0.01% TWEEN 20 prior to the addition of 170 μL of the stopped assay mixture. The plate was washed with 4×200 μL 0.2M phosphoric acid+0.01% TWEEN 20. After drying, 30 μL Optiphase ‘SuperMix’ liquid scintillation cocktail (Perkin Elmer) was added to the well prior to scintillation counting (1450 Microbeta Liquid Scintillation Counter, Wallac).
Ki(app) data were calculated from non-linear regression analysis of the initial rate data using the Prism software package (GraphPad Prism version 3.0cx for Macintosh, GraphPad Software, San Diego Calif., USA).

[4] = target: T2, Aurora-2 (Aurora A) (Homo sapiens, UniProt O14965); test: Aurora-2 (Aurora A) inhibition assay, coupled enzyme; format: biochemical; settings: read-out: Aurora A kinase Ki value
T2 sequence (O14965 1-403): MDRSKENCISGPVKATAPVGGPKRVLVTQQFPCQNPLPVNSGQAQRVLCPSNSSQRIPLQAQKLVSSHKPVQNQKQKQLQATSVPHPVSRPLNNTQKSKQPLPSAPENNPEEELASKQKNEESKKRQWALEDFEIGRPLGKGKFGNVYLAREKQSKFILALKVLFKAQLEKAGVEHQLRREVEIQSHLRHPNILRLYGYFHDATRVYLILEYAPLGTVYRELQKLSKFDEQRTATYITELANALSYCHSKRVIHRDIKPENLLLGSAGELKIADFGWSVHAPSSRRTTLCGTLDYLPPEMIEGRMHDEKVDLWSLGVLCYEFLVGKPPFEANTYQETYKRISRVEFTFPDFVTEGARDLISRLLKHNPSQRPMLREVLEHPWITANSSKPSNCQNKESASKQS
In short: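 These rates came from NADH consumption coupled through pyruvate kinase and lactate dehydrogenase (100 mM Hepes pH 7.5, 10 mM MgCl2, 300 μM NADH). Aurora-2 was present at 40 nM, and the reaction ran at 30 °C after a 10 min preincubation.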

[5] = target: T3, FLT-3 (Homo sapiens, UniProt P36888); test: FLT-3 inhibition assay, radiometric filter-binding; format: biochemical
T3 sequence (P36888 27-993): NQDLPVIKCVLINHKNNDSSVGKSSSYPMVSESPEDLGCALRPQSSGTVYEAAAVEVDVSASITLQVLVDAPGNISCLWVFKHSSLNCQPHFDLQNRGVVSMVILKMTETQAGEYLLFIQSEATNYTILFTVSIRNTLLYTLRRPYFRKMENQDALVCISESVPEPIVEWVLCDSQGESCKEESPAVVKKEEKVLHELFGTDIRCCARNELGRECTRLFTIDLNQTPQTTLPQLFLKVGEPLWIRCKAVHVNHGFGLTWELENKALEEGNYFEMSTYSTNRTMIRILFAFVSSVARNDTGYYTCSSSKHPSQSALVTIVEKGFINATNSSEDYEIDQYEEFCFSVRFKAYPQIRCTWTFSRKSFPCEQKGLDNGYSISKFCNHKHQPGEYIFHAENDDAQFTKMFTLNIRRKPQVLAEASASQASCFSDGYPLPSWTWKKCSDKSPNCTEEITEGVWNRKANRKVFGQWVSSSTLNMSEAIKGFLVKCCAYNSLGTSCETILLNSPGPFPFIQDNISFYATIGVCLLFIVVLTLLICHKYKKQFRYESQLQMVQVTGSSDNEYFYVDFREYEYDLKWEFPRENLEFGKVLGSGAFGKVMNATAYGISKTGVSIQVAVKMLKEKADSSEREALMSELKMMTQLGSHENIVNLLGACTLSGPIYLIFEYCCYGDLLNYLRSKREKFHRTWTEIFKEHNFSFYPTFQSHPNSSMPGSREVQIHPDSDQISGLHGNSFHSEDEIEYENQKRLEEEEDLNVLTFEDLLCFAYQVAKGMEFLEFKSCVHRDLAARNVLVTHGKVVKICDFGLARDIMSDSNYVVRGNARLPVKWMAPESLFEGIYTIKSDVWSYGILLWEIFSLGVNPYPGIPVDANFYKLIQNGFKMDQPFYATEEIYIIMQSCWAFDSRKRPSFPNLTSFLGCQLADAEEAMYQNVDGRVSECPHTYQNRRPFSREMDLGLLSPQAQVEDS
Description: This assay monitors the 33P incorporation into a substrate poly(Glu, Tyr) 4:1 (pE4Y). […] Final substrate concentrations in the assay were 90 μM ATP and 0.5 mg/ml pE4Y (both from Sigma Chemicals, St. Louis, Mo.). […] Reactions were carried out at room temperature.
Two assay solutions were prepared. Solution 1 contains 100 mM HEPES (pH 7.5), 10 mM MgCl2, 25 mM NaCl, 1 mg/ml pE4Y and […] (containing 0.3 mCi of [γ-33^P]ATP for each reaction). Solution 2 contains 100 mM HEPES (pH 7.5), 10 mM MgCl2, 25 mM NaCl, 2 mM DTT, 0.02% BSA and 3 nM FLT-3. The assay was run on a 96 well plate by mixing 50 μl each of Solution 1 and […] of the compounds of the present invention. The reaction was initiated with Solution 2. […] All of the reaction volume was then transferred to a filter plate and washed with 5% TCA by a Harvester 9600 from TOMTEC (Hamden, Conn.). The amount of ^33P incorporation into pE4y was analyzed by a Packard Top Count Microplate Scintillation Counter (Meriden, Conn.). The data was fitted using Prism software to get an IC50 or Ki.

[6] = target: T4, JAK3 (Homo sapiens, UniProt P52333); test: biochemical
T4 sequence (P52333 1-1124): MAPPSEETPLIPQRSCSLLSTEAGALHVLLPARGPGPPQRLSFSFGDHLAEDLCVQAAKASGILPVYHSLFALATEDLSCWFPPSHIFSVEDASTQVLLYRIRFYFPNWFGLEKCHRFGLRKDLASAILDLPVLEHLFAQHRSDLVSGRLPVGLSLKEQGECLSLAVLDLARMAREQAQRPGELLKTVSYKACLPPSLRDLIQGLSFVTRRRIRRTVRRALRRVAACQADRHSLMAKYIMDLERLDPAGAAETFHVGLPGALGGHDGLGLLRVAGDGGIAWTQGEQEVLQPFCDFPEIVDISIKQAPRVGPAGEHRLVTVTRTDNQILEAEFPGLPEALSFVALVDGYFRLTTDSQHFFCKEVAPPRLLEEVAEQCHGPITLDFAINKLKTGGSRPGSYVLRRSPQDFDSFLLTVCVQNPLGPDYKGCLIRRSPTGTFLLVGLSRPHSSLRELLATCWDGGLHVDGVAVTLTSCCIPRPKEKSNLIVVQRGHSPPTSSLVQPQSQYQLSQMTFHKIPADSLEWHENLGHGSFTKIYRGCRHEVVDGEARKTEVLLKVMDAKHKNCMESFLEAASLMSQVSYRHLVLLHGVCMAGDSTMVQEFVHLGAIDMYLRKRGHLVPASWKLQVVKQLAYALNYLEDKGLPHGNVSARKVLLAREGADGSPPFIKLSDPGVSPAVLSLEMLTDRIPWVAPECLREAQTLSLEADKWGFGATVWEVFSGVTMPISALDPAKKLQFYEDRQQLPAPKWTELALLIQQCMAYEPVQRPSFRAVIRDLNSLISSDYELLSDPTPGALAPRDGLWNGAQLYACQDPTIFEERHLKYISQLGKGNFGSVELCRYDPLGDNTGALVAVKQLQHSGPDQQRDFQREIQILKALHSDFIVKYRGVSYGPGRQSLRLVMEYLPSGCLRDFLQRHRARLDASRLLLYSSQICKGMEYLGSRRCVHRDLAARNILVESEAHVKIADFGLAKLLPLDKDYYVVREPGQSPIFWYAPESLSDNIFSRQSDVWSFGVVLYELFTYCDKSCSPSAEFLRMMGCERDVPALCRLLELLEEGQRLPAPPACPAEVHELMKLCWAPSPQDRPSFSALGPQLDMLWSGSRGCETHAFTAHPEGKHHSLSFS

[7] = COLO 205, Colo205 cells, incubated for 96 hours

Sequence of Aurora-1 (Aurora B) (Q96GD4 whole entry): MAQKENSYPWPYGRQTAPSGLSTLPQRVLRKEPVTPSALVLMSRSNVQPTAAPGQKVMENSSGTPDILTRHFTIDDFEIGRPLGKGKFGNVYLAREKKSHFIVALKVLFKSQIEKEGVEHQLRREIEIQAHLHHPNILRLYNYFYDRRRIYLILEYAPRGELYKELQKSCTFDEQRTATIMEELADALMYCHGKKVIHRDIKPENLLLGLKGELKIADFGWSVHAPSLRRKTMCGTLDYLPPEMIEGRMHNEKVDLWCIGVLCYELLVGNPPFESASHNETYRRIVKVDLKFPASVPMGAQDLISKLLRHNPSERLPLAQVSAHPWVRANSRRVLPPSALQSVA

In the case of Cc1cc(Nc2cc(N3CCC3)nc(Sc3ccc(NC(=O)c4ccccc4F)cc3)n2)n[nH]1 [Compound 9], the Ki [1] is reported as ≤ 10 nM, the IC50 [2, 7] is reported as 50 to 1000 nM and the Ki [3] is reported as 100 to 1000 nM.
Compound Cc1cc(Nc2cc(N3CCC3)nc(Sc3ccc(NC(=O)c4cccc(F)c4F)cc3)n2)n[nH]1 [Compound 33] has an IC50 ([2]; COLO 205, 96 h) of 50 to 1000 nM, a Ki [4] of 1 to 5 nM and a Ki [3] of 100 to 1000 nM.
Work on Cc1cc(Nc2cc(N3CCC3)nc(Sc3ccc(NC(=O)c4ccccc4OC(F)(F)F)cc3)n2)n[nH]1 [Compound 34] yielded an IC50 ([2]; COLO 205, 96 h) of 50 to 1000 nM and a Ki [3] of 100 to 1000 nM.
For Cc1cc(Nc2cc(N3CCC3)nc(Sc3ccc(NC(=O)c4c(Cl)cccc4Cl)cc3)n2)n[nH]1 [Compound 46], the IC50 ([2]; COLO 205, 96 h) was 50 to 1000 nM and the Ki [3] was ≤ 100 nM.
With Cc1cc(Nc2cc(N3CCC3)nc(Sc3ccc(NC(=O)c4cccc(Cl)c4)cc3)n2)n[nH]1 [Compound 53] the IC50 [2, 7] was 50 to 1000 nM and the Ki [3] was 100 to 1000 nM.
For Cc1cc(Nc2cc(N3CCC3)nc(Sc3ccc(NC(=O)c4ccccc4C(F)(F)F)cc3)n2)[nH]n1 [Compound 56], the IC50 ([2]; COLO 205, Colo205 cells, incubated for 72 hours) was 30 to 200 nM, the IC50 [2, 7] was ≤ 50 nM and the Ki [3] was 100 to 1000 nM.
In the case of CCc1cc(Nc2cc(N3CCC3)nc(Sc3ccc(NC(=O)c4ccccc4Cl)cc3)n2)n[nH]1 [Compound 64], the IC50 [2, 7] is reported as 50 to 1000 nM, the Ki [5] is reported as 50 to 150 nM and the Ki [3] is reported as ≤ 100 nM.
For O=C(Nc1ccc(Sc2nc(Nc3cc(C4CC4)[nH]n3)cc(N3CCC3)n2)cc1)c1ccccc1Cl [Compound 65], the IC50 [2, 7] was 50 to 1000 nM, the Ki ([6]; read-out: JAK3 Ki value) was ≤ 10 nM and the Ki [3] was ≤ 100 nM.
For O=C(Nc1ccc(Sc2nc(Nc3cc(CO)[nH]n3)cc(N3CCC3)n2)cc1)c1ccccc1Cl [Compound 75], the Ki [1] was 50 to 2000 nM, the Ki [4] was 5 to 200 nM and the Ki [3] was 1000 to 2000 nM.
In the case of Cc1cc(Nc2cc(N3CCC3)nc(Sc3ccc(NC(=O)c4cccc(C)c4Cl)cc3)n2)n[nH]1 [Compound 161], the IC50 [2, 7] is reported as 50 to 1000 nM, the Ki ([6]; read-out: JAK3 Ki value) is reported as ≤ 10 nM and the Ki [3] is reported as 100 to 1000 nM.
In the case of Cc1cc(Nc2cc(N3CCC3)nc(Sc3ccc(NC(=O)c4cc(Cl)ccc4Cl)cc3)n2)n[nH]1 [Compound 163], the IC50 [2, 7] is reported as 50 to 1000 nM and the Ki [3] is reported as 100 to 1000 nM.
For CCc1cccc(C(=O)Nc2ccc(Sc3nc(Nc4cc(C)[nH]n4)cc(N4CCC4)n3)cc2)c1Cl [Compound 164], the IC50 [2, 7] was ≤ 50 nM, the Ki [6] was ≤ 10 nM and the Ki [3] was 100 to 1000 nM.
